Test results as given in patent US8506973B2, “Injectable anticancer composition for local administration containing hydroxychloroquine” (priority 2009, dated 2013).

Key:
Sarcoma-180 cells = experiment: Inhibitory effect on differentiation of subcutaneously transplanted Sarcoma-180 cells in ICR mice; format: in vivo; details: cisplatin 20 mg/m^2, 12 animals per group, average of two tests
Experimental: A sarcoma-180 cell suspension having a cell concentration of 2×10^7 cells/ml was transplanted by subcutaneous injection into the inguinal region of all the groups excluding the normal group, thereby inducing solid cancer.
On the final day of the test, the animals were biopsied, and the number of animals in which sarcoma-180 cells stably grew was measured and used as an anticancer index. The same test was carried out twice, and the two measurements were averaged.

[1] = Solubility of hydroxychloroquine (statement); format: physicochemical

| solubility at room temperature (in words) [1] | Compound | number of animals in which cancer cells were observed in the inguinal region by biopsy (Sarcoma-180 cells) [animals] |
| --- | --- | --- |
|  | N.N.[Cl][Pt][Cl] [cisplatin, Cisplatin] | 4.5 |
| insoluble at room temperature | CCN(CCO)CCCC(C)Nc1ccnc2cc(Cl)ccc12 (centres unmarked) [hydroxychloroquine] |  |
